5 compounds from patent publication US9062124B2, “GIP-based mixed agonists for treatment of metabolic disorders and obesity” (priority 2008, dated 2015) can be followed below.

Common to all, as to format: cell-based
The target in assay [1] is T1, glucagon receptor (Homo sapiens, UniProt P47871).
T1 construct: expressed in transfected cells; host or cells: HEK293
The assay is described as follows: cAMP synthesis functional assay (firefly luciferase reporter in HEK293 cells), glucagon receptor. The following applies: for Glucagon Receptor relative activity: relative to the standard (Std.) EC50 of the same run; for EC50: Glucagon Receptor EC50, cAMP luciferase reporter assay as in Example 16. (In general: Reporter assays use an easily measured gene product as a stand-in for the process of interest.)

The target in assay [2] is T2, GIP receptor (Homo sapiens, UniProt P48546).
T2 construct: expressed in transfected cells; host or cells: HEK293
T2 sequence (P48546 22-466): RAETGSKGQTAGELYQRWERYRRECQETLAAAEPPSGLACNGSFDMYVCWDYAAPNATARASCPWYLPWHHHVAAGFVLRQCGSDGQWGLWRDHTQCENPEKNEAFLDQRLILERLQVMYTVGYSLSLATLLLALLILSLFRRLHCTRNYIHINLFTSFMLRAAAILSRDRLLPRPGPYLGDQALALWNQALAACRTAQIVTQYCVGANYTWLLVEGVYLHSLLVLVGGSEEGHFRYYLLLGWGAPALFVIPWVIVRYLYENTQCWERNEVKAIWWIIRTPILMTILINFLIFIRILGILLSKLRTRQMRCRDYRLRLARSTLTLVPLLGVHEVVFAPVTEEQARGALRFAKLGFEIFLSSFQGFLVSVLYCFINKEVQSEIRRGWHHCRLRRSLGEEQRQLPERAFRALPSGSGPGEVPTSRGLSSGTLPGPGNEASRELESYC
The assay is described as follows: cAMP synthesis functional assay (firefly luciferase reporter in HEK293 cells), GIP receptor. Conditions: for EC50: GIP Receptor EC50, cAMP luciferase reporter assay as in Example 16; for GIP Receptor relative activity: relative to the standard (Std.) EC50 of the same run.

Assay [3] deals with T3, GLP-1 receptor (Homo sapiens, UniProt P43220).
T3 construct: expressed in transfected cells; host or cells: HEK293
T3 sequence (P43220 24-463, species assumed): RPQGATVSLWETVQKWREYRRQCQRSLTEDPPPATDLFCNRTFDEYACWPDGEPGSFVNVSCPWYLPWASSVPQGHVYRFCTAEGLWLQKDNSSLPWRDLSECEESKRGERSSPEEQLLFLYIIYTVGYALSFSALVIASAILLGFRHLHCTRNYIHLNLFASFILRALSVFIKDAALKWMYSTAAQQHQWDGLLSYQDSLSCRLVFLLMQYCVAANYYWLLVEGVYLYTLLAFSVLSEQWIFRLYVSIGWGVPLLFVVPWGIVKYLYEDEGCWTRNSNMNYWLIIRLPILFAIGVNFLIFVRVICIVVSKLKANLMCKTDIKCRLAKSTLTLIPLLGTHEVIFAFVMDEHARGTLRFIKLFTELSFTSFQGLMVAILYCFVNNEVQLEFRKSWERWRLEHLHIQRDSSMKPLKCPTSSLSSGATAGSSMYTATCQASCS
The assay is described as follows: cAMP synthesis functional assay (firefly luciferase reporter in HEK293 cells), GLP-1 receptor. The following applies: for EC50: GLP-1 Receptor EC50, cAMP luciferase reporter assay as in Example 16; for GLP-1 Receptor relative activity: relative to the standard (Std.) EC50 of the same run.

Where a SMILES comes first, the peptide text is derived from it. [ ]: non-standard residue; d: D form. The star is where a group is joined. Stearoyl = CCCCCCCCCCCCCCCCCC(=O)*; Palmitoyl = CCCCCCCCCCCCCCCC(=O)*; Myristoyl = CCCCCCCCCCCCCC(=O)*; Aib = CC(C)(N)C(=O)O

T1 sequence (P47871 26-477): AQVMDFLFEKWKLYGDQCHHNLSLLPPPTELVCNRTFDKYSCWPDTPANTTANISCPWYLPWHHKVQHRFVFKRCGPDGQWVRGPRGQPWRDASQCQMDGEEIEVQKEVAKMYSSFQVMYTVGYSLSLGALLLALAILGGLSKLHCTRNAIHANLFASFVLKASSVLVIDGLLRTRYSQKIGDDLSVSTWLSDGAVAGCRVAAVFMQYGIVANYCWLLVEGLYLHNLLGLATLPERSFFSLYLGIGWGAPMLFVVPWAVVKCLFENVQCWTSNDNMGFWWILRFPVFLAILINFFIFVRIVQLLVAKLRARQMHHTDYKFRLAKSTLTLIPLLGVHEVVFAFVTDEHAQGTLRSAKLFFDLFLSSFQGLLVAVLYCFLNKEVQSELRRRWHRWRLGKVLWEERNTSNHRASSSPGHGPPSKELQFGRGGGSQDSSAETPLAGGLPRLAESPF

Consider `CC[C@H](C)[C@H](NC(=O)[C@H](CO)NC(=O)[C@H](Cc1ccc(O)cc1)NC(=O)[C@H](CC(=O)O)NC(=O)[C@H](CO)NC(=O)[C@@H](NC(=O)[C@H](Cc1ccccc1)NC(=O)[C@@H](NC(=O)CNC(=O)[C@H](CCC(=O)O)NC(=O)C(C)(C)NC(=O)[C@@H](N)Cc1ccc(O)cc1)[C@@H](C)O)[C@@H](C)O)C(=O)N[C@@H](Cc1ccc(O)cc1)C(=O)N[C@@H](CC(C)C)C(=O)N[C@@H](CC(=O)O)C(=O)N[C@@H](CCCCN)C(=O)N[C@@H](CCC(N)=O)C(=O)N[C@@H](C)C(=O)N[C@@H](C)C(=O)NC(C)(C)C(=O)N[C@@H](CCC(=O)O)C(=O)N[C@@H](Cc1ccccc1)C(=O)N[C@H](C(=O)N[C@@H](CC(N)=O)C(=O)N[C@@H](Cc1c[nH]c2ccccc12)C(=O)N[C@@H](CC(C)C)C(=O)N[C@@H](CC(C)C)C(=O)N[C@@H](C)C(=O)NCC(=O)NCC(=O)N1CCC[C@H]1C(=O)N[C@@H](CO)C(=O)N[C@@H](CO)C(=O)NCC(=O)N[C@@H](C)C(=O)N1CCC[C@H]1C(=O)N1CCC[C@H]1C(=O)N1CCC[C@H]1C(=O)N[C@@H](CO)C(=O)N[C@@H](CS)C(N)=O)C(C)C` [mt-256], for which the “Glucagon Receptor relative activity” value in assay [1] turned out to be 0.12%. Also, in assay [2], the half-maximal effective concentration (EC50) (usually the concentration that produces a half-maximal response) was found to be 0.0034 nM and the “GIP Receptor relative activity” value was found to be 282.35%. Moreover, in assay [3], it took 0.0124 nM to reach a half-maximal effect (EC50) and the “GLP-1 Receptor relative activity” value is reported as 95.97%.

Regarding `CCCCCCCCCCCCCC(=O)NCCCC[C@H](NC(=O)[C@H](CC(=O)O)NC(=O)[C@H](CO)NC(=O)[C@@H](NC(=O)[C@H](Cc1ccccc1)NC(=O)[C@@H](NC(=O)CNC(=O)[C@H](CCC(=O)O)NC(=O)C(C)(C)NC(=O)[C@@H](N)Cc1ccc(O)cc1)[C@@H](C)O)[C@@H](C)O)C(=O)N[C@@H](CO)C(=O)N[C@H](C(=O)N[C@@H](Cc1ccc(O)cc1)C(=O)N[C@@H](CC(C)C)C(=O)N[C@@H](CC(=O)O)C(=O)N[C@@H](CCCCN)C(=O)N[C@@H](CCC(N)=O)C(=O)N[C@@H](C)C(=O)N[C@@H](C)C(=O)NC(C)(C)C(=O)N[C@@H](CCC(=O)O)C(=O)N[C@@H](Cc1ccccc1)C(=O)N[C@H](C(=O)N[C@@H](CC(N)=O)C(=O)N[C@@H](Cc1c[nH]c2ccccc12)C(=O)N[C@@H](CC(C)C)C(=O)N[C@@H](CC(C)C)C(=O)N[C@@H](C)C(=O)NCC(=O)NCC(=O)N1CCC[C@H]1C(=O)N[C@@H](CO)C(=O)N[C@@H](CO)C(=O)NCC(=O)N[C@@H](C)C(=O)N1CCC[C@H]1C(=O)N1CCC[C@H]1C(=O)N1CCC[C@H]1C(=O)N[C@@H](CO)C(N)=O)C(C)C)[C@@H](C)CC` [mt-269] (H-Y[Aib]EGTFTSDK(Myristoyl)SIYLDKQAA[Aib]EFVNWLLAGGPSSGAPPPS-NH2; N-terminus assumed), in assay [1], the EC50 turned out to be 183 nM and the “Glucagon Receptor relative activity” value is reported as 0.11%. Besides, in assay [2], the EC50 is 0.0057 nM and the “GIP Receptor relative activity” value was found to be 140.35%. Further, in assay [3], the response was half-maximal at 0.0136 nM (EC50) and the “GLP-1 Receptor relative activity” value was found to be 144.85%.

Regarding `CCCCCCCCCCCCCCCC(=O)NCCCC[C@H](NC(=O)[C@H](CC(=O)O)NC(=O)[C@H](CO)NC(=O)[C@@H](NC(=O)[C@H](Cc1ccccc1)NC(=O)[C@@H](NC(=O)CNC(=O)[C@H](CCC(=O)O)NC(=O)C(C)(C)NC(=O)[C@@H](N)Cc1ccc(O)cc1)[C@@H](C)O)[C@@H](C)O)C(=O)N[C@@H](CO)C(=O)N[C@H](C(=O)N[C@@H](Cc1ccc(O)cc1)C(=O)N[C@@H](CC(C)C)C(=O)N[C@@H](CC(=O)O)C(=O)N[C@@H](CCCCN)C(=O)N[C@@H](CCC(N)=O)C(=O)N[C@@H](C)C(=O)N[C@@H](C)C(=O)NC(C)(C)C(=O)N[C@@H](CCC(=O)O)C(=O)N[C@@H](Cc1ccccc1)C(=O)N[C@H](C(=O)N[C@@H](CC(N)=O)C(=O)N[C@@H](Cc1c[nH]c2ccccc12)C(=O)N[C@@H](CC(C)C)C(=O)N[C@@H](CC(C)C)C(=O)N[C@@H](C)C(=O)NCC(=O)NCC(=O)N1CCC[C@H]1C(=O)N[C@@H](CO)C(=O)N[C@@H](CO)C(=O)NCC(=O)N[C@@H](C)C(=O)N1CCC[C@H]1C(=O)N1CCC[C@H]1C(=O)N1CCC[C@H]1C(=O)N[C@@H](CO)C(N)=O)C(C)C)[C@@H](C)CC` [mt-270] (H-Y[Aib]EGTFTSDK(Palmitoyl)SIYLDKQAA[Aib]EFVNWLLAGGPSSGAPPPS-NH2; N-terminus assumed), in assay [1], the EC50 turned out to be 306 nM and the “Glucagon Receptor relative activity” value was determined as 0.06%. Moreover, in assay [2], the EC50 turned out to be 0.0049 nM and the “GIP Receptor relative activity” value is 163.27%. Besides, in assay [3], a half-maximal effect (EC50) was put at 0.0093 nM and the “GLP-1 Receptor relative activity” value came to 211.83%.

For the compound `CCCCCCCCCCCCCCCCCC(=O)NCCCC[C@H](NC(=O)[C@H](CC(=O)O)NC(=O)[C@H](CO)NC(=O)[C@@H](NC(=O)[C@H](Cc1ccccc1)NC(=O)[C@@H](NC(=O)CNC(=O)[C@H](CCC(=O)O)NC(=O)C(C)(C)NC(=O)[C@@H](N)Cc1ccc(O)cc1)[C@@H](C)O)[C@@H](C)O)C(=O)N[C@@H](CO)C(=O)N[C@H](C(=O)N[C@@H](Cc1ccc(O)cc1)C(=O)N[C@@H](CC(C)C)C(=O)N[C@@H](CC(=O)O)C(=O)N[C@@H](CCCCN)C(=O)N[C@@H](CCC(N)=O)C(=O)N[C@@H](C)C(=O)N[C@@H](C)C(=O)NC(C)(C)C(=O)N[C@@H](CCC(=O)O)C(=O)N[C@@H](Cc1ccccc1)C(=O)N[C@H](C(=O)N[C@@H](CC(N)=O)C(=O)N[C@@H](Cc1c[nH]c2ccccc12)C(=O)N[C@@H](CC(C)C)C(=O)N[C@@H](CC(C)C)C(=O)N[C@@H](C)C(=O)NCC(=O)NCC(=O)N1CCC[C@H]1C(=O)N[C@@H](CO)C(=O)N[C@@H](CO)C(=O)NCC(=O)N[C@@H](C)C(=O)N1CCC[C@H]1C(=O)N1CCC[C@H]1C(=O)N1CCC[C@H]1C(=O)N[C@@H](CO)C(N)=O)C(C)C)[C@@H](C)CC` [mt-271] (H-Y[Aib]EGTFTSDK(Stearoyl)SIYLDKQAA[Aib]EFVNWLLAGGPSSGAPPPS-NH2; N-terminus assumed), in assay [1], the EC50 is 113 nM and the “Glucagon Receptor relative activity” value was 0.17%. Moreover, in assay [2], the EC50 was found to be 0.0056 nM and the “GIP Receptor relative activity” value is 142.86%. In assay [3], the EC50 was determined as 0.0106 nM and the “GLP-1 Receptor relative activity” value turned out to be 185.85%.

`CC[C@H](C)[C@H](NC(=O)[C@H](CO)NC(=O)[C@H](CCCCN)NC(=O)[C@H](CC(=O)O)NC(=O)[C@H](CO)NC(=O)[C@@H](NC(=O)[C@H](Cc1ccccc1)NC(=O)[C@@H](NC(=O)CNC(=O)[C@H](CCC(=O)O)NC(=O)C(C)(C)NC(=O)[C@@H](N)Cc1ccc(O)cc1)[C@@H](C)O)[C@@H](C)O)C(=O)N[C@@H](Cc1ccc(O)cc1)C(=O)N[C@@H](CC(C)C)C(=O)N[C@@H](CC(=O)O)C(=O)N[C@@H](CCCCN)C(=O)N[C@@H](CCC(N)=O)C(=O)N[C@@H](C)C(=O)N[C@@H](C)C(=O)NC(C)(C)C(=O)N[C@@H](CCC(=O)O)C(=O)N[C@@H](Cc1ccccc1)C(=O)N[C@H](C(=O)N[C@@H](CC(N)=O)C(=O)N[C@@H](Cc1c[nH]c2ccccc12)C(=O)N[C@@H](CC(C)C)C(=O)N[C@@H](CC(C)C)C(=O)N[C@@H](C)C(=O)NCC(=O)NCC(=O)N1CCC[C@H]1C(=O)N[C@@H](CO)C(=O)N[C@@H](CO)C(=O)NCC(=O)N[C@@H](C)C(=O)N1CCC[C@H]1C(=O)N1CCC[C@H]1C(=O)N1CCC[C@H]1C(=O)N[C@@H](CO)C(N)=O)C(C)C` [mt-272] (H-Y[Aib]EGTFTSDKSIYLDKQAA[Aib]EFVNWLLAGGPSSGAPPPS-NH2; N-terminus assumed): in assay [1], the concentration for a half-maximal effect (EC50) turned out to be 1060 nM and the “Glucagon Receptor relative activity” value is reported as 0.02%. Moreover, in assay [2], the response was half-maximal at 0.0241 nM (EC50) and the “GIP Receptor relative activity” value was found to be 33.20%. In addition, in assay [3], a half-maximal response (EC50) required 1.23 nM and the “GLP-1 Receptor relative activity” value stood at 1.60%.
